Patent US12622933B2, “Method for improving eye condition” (LAIMU CORPORATION, priority 2022, dated 2026)

Test system: dry eye patient
Assay: Peroral administration to a dry eye patient
Assay type: in vivo, human
Conditions: perorally administered to a dry eye patient; no method or data given

In the case of hyaluronic acid, the “eye condition improving effect” value is reported as “any significant eye condition improving can not be attained”.
